Test results reported in patent publication US20240059703A1 (AMGEN INC., priority 2021, published 2024).

What follows are compounds tested against KRAS G12C (Homo sapiens (Human), UniProt P01116, C118A/G12C) (assay: 2 h coupled exchange assay). Settings: Avg 2 h Coupled exchange IC50, 2 h compound pre-incubation, SOS-mediated nucleotide exchange.
Type: biochemical
Experimental: The term “2 h coupled exchange assay” or “20 h coupled exchange assay” as used herein refers to the assay described in the Section entitled “BIOLOGICAL EVALUATION.”

Chain of KRAS G12C (P01116 other isoform, or with tags, fused parts or gaps G12C/C118A): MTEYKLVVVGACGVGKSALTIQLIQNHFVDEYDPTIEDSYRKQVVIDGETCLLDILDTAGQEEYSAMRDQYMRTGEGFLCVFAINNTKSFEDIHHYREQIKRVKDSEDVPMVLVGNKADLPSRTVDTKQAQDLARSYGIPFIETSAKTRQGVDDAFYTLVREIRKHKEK

| IC50 [µM] | SMILES |
| --- | --- |
| 0.657 | C=CC(=O)N1CC2(CCN(c3nc4c(c(-c5c(C)ccc6[nH]ncc56)c3C#N)CC(C)(C)C4)[C@H]2C)C1 (atropisomer, axis not shown; (P)) [Example 13-53, (P)-6,6-dimethyl-4-(5-methyl-1H-indazol-4-yl)-2-((5S)-5-methyl-2-(2-propenoyl)-2,6-diazaspiro[3.4]octan-6-yl)-6,7-dihydro-5H-cyclopenta[b]pyridine-3-carbonitrile] |
| 0.13 | CN(C)C/C=C/C(=O)N1CC2(CCN(c3nc4c(c(-c5cc(O)cc6ccccc56)c3C#N)CC[C@@H]3C[C@H]43)C2)C1 (atropisomer, axis not shown; (P)) [Example 13-87, (P)-(6aR,7aS)-2-(2-((2E)-4-(dimethylamino)-2-butenoyl)-2,6-diazaspiro[3.4]octan-6-yl)-4-(3-hydroxy-1-naphthalenyl)-6,6a,7,7a-tetrahydro-5H-cyclopropa[h]quinoline-3-carbonitrile] |
| 20.4 | CN(C)C/C=C/C(=O)N1CC2(CCN(c3nc4c(c(-c5cc(O)cc6ccccc56)c3C#N)CC[C@H]3C[C@@H]43)C2)C1 (racemic) [Example 13-86, (M)-(6aR,7aS)-2-(2-((2E)-4-(dimethylamino)-2-butenoyl)-2,6-diazaspiro[3.4]octan-6-yl)-4-(3-hydroxy-1-naphthalenyl)-6,6a,7,7a-tetrahydro-5H-cyclopropa[h]quinoline-3-carbonitrile and (M)-(6aS,7aR)-2-(2-((E)-4-(dimethylamino)but-2-enoyl)-2,6-diazaspiro[3.4]octan-6-yl)-4-(3-hydroxynaphthalen-1-yl)-6,6a,7,7a-tetrahydro-5H-cyclopropan[h]quinoline-3-carbonitrile] |
| 1.11 | C=CC(=O)N1CC2(CCN(c3nc4c(c(-c5c(C)ccc6[nH]ncc56)c3C)CCC(C)(C)C4)C2)C1 (single isomer, unassigned) [Example 2-12, (M)-1-(6-(3,7,7-trimethyl-4-(5-methyl-1H-indazol-4-yl)-5,6,7,8-tetrahydro-2-quinolinyl)-2,6-diazaspiro[3.4]octan-2-yl)-2-propen-1-one] |
| 2.9 | C=CC(=O)N1CC2(CCN(c3nc4c(c(-c5cccc6cc(O)ccc56)c3C)CCC(C)(C)C4)C2)C1 (single isomer, unassigned) [Example 2-14, (M)-1-(6-(4-(6-hydroxy-1-naphthalenyl)-3,7,7-trimethyl-5,6,7,8-tetrahydro-2-quinolinyl)-2,6-diazaspiro[3.4]ctan-2-yl)-2-opropen-1-one] |
| 5.24 | C=CC(=O)N1CC2(CCN(c3nc4c(c(-c5ccc(F)c6sc(N)nc56)c3C)CCC(C)(C)C4)C2)C1 (single isomer, unassigned) [Example 2-18] |
| 10.5 | C=CC(=O)N1CC2(CCN(c3nc4c(c(-c5c(C)ccc6cnn(C)c56)c3C)CCC(C)(C)C4)C2)C1 (single isomer, unassigned) [Example 2-20, (M)-1-(6-(4-(1,6-dimethyl-1H-indazol-7-yl)-3,7,7-trimethyl-5,6,7,8-tetrahydro-2-quinolinyl)-2,6-diazaspiro[3.4]octan-2-yl)-2-propen-1-one] |
| 0.119 | C=CC(=O)N1CC2(CCN(c3nc4c(c(-c5c(C)ccc6cn[nH]c56)c3C)CCC(C)(C)C4)C2)C1 (single isomer, unassigned) [Example 2-24, (P)-1-(6-(3,7,7-trimethyl-4-(6-methyl-1H-indazol-7-yl)-5,6,7,8-tetrahydro-2-quinolinyl)-2,6-diazaspiro[3.4]octan-2-yl)-2-propen-1-one] |
| 6.88 | C=CC(=O)N1CC2(CCN(c3nc4c(c(-c5c(C)ccc6cn[nH]c56)c3C)CCC(C)(C)C4)C2)C1 (single isomer, unassigned) [Example 2-25, (M)-1-(6-(3,7,7-trimethyl-4-(6-methyl-1H-indazol-7-yl)-5,6,7,8-tetrahydro-2-quinolinyl)-2,6-diazaspiro[3.4]octan-2-yl)-2-propen-1-one] |
| 131 | C=CC(=O)N1CC2(CCN(c3nc4c(c(-c5cc(O)cc6cccnc56)c3C#N)C[C@H]3C[C@@H]4C3(C)C)C2)C1 (single isomer, unassigned) [Example 2-44] |
| 0.181 | C=CC(=O)N1CC2(CCN(c3nc4c(c(-c5cc(O)cc6ncccc56)c3C#N)C[C@H]3C[C@@H]4C3(C)C)C2)C1 (single isomer, unassigned) [Example 2-47] |
| 7.11 | C=CC(=O)N1CC2(CCN(c3cc4c(c(-c5cc(O)cc6ccccc56)c3C#N)OCCC4)C2)C1 (single isomer, unassigned) [Example 2-53, (P)-8-(3-hydroxy-1-naphthalenyl)-6-(2-(2-propenoyl)-2,6-diazaspiro[3.4]octan-6-yl)-3,4-dihydro-2H-chromene-7-carbonitrile] |
| 0.419 | C=CC(=O)N1CC2(CCN(c3nc4ccccc4c(-c4c(C)ccc5[nH]ncc45)c3C)C2)C1 (single isomer, unassigned) [Example 2-55, (P)-1-(6-(3-methyl-4-(5-methyl-1H-indazol-4-yl)-2-quinolinyl)-2,6-diazaspiro[3.4]octan-2-yl)-2-propen-1-one] |
| 43.6 | C=CC(=O)N1CC2(CCN(c3nc4ccccc4c(-c4c(C)ccc5[nH]ncc45)c3C)C2)C1 (single isomer, unassigned) [Example 2-56, (M)-1-(6-(3-methyl-4-(5-methyl-1H-indazol-4-yl)-2-quinolinyl)-2,6-diazaspiro[3.4]octan-2-yl)-2-propen-1-one] |
| 14.9 | C=CC(=O)N1CC2(CCN(c3nc4cc(F)ccc4c(-c4c(C)ccc5[nH]ncc45)c3C)[C@@H]2C)C1 (single isomer, unassigned) [Example 2-59] |
| 4.67 | C=CC(=O)N1CC2(CCN(c3nc4cc(F)ccc4c(-c4c(C)ccc5[nH]ncc45)c3C)[C@H]2C)C1 (single isomer, unassigned) [Example 2-60] |
| 16 | C=CC(=O)N1CC2(CCN(c3nc4c(c(-c5cc(O)ccc5C)c3C#N)C[C@H]3C[C@@H]4C3(C)C)C2)C1 (single isomer, unassigned) [Example 2-68] |
| 20.3 | C=CC(=O)N1CC2(CCN(c3nc4c(c(-c5cccc(F)c5O)c3C#N)C[C@H]3C[C@@H]4C3(C)C)C2)C1 (single isomer, unassigned) [Example 2-71] |
| 0.651 | C=CC(=O)N1CC2(CCN(c3nc4c(c(-c5cccc(F)c5O)c3C#N)C[C@H]3C[C@@H]4C3(C)C)C2)C1 (single isomer, unassigned) [Example 2-72] |
| 0.454 | C=CC(=O)N1CC2(CCN(c3nc4c(c(-c5cc(O)ccc5Cl)c3C#N)C[C@H]3C[C@@H]4C3(C)C)C2)C1 (single isomer, unassigned) [Example 2-75] |
| 20.1 | C=CC(=O)N1CC2(CCN(c3nc4c(c(-c5cc(O)ccc5C)c3Cl)COC(C)(C)C4)C2)C1 (single isomer, unassigned) [Example 2-80, (M)-1-(6-(3-chloro-4-(5-hydroxy-2-methylphenyl)-7,7-dimethyl-7,8-dihydro-5H-pyrano[4,3-b]pyridin-2-yl)-2,6-diazaspiro[3.4]octan-2-yl)-2-propen-1-one] |

Same assay, conditions: read-out: Avg 2 h Coupled exchange IC50, 2 h compound pre-incubation

| IC50 [µM] | SMILES |
| --- | --- |
| 34.6 | C=CC(=O)N1CC2(CCN(c3nc4ccccc4c(-c4c(C)ccc5[nH]ncc45)c3C=C)C2)C1 (atropisomer, axis not shown; (M)) [Example 26-2, (M)-1-(6-(3-ethenyl-4-(5-methyl-1H-indazol-4-yl)-2-quinolinyl)-2,6-diazaspiro[3.4]octan-2-yl)-2-propen-1-one] |
